Literature values, collected in patent EP0404807B1, “DEPRENYL FOR SYSTEMIC TRANSDERMAL ADMINISTRATION” (SOMERSET PHARMACEUTICALS, INC., priority 1988, dated 1989).

Conditions: deprenyl alone, as stated in EP 0241809 A

C#CCN(C)C(C)Cc1ccccc1 (stereo not shown) [deprenyl, N-methyl-N-(1-phenyl-2-propyl)-2-propinylamine]
anti-Parkinsonism action: almost no anti-Parkinsonism action
